A value given as a limit tells only on which side of the number the result lay.

In assay [1] the target is Adenosine receptor A2a (Homo sapiens, UniProt P29274).
Assay [2] addresses T1, Type-1 angiotensin II receptor (Homo sapiens, UniProt P30556).
T1 sequence (P30556 whole entry): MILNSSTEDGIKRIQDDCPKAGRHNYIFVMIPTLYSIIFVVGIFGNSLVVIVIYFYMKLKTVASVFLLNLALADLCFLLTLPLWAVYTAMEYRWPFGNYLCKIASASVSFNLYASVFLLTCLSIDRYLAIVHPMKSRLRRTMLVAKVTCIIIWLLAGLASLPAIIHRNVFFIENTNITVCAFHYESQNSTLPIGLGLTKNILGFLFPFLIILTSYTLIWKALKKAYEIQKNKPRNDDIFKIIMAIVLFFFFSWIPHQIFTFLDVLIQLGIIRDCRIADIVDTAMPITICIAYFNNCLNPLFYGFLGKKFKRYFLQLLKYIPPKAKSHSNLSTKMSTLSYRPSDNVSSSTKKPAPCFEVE

Assay [3] addresses Voltage-dependent L-type calcium channel subunit alpha-1C (Rattus norvegicus, UniProt P22002). Format: functional.
For assay [4], the target named is T2, Cholecystokinin receptor type A (Homo sapiens, UniProt P32238).
T2 sequence (P32238 whole entry): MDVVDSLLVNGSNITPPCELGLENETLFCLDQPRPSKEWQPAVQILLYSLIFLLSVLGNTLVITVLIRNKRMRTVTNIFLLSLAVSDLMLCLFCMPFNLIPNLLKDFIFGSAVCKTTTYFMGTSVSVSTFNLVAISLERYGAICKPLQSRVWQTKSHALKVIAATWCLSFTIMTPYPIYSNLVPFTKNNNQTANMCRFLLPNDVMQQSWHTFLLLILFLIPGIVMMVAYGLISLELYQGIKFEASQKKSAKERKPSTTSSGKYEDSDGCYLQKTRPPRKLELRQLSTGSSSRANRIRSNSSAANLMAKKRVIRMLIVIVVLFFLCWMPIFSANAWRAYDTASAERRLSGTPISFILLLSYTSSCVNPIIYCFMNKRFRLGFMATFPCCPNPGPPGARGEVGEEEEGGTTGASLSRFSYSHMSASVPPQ

Assay [5] deals with Neuronal acetylcholine receptor subunit alpha-4 (Homo sapiens, UniProt P43681).
Assay [6] has as its target D(1A) dopamine receptor (Homo sapiens, UniProt P21728). Format: functional, cell-based.
Assay [7] concerns the target Gamma-aminobutyric acid receptor subunit alpha-1 (Rattus norvegicus, UniProt P62813). The format is functional.
Assay [8] addresses Glutamate receptor ionotropic, NMDA 1 (Rattus norvegicus, UniProt P35439).
In assay [9] the target is Histamine H2 receptor (Homo sapiens, UniProt P25021). Format: functional, cell-based.
Assay [10] addresses T3, Progesterone receptor (Homo sapiens, UniProt P06401).
T3 sequence (P06401 whole entry): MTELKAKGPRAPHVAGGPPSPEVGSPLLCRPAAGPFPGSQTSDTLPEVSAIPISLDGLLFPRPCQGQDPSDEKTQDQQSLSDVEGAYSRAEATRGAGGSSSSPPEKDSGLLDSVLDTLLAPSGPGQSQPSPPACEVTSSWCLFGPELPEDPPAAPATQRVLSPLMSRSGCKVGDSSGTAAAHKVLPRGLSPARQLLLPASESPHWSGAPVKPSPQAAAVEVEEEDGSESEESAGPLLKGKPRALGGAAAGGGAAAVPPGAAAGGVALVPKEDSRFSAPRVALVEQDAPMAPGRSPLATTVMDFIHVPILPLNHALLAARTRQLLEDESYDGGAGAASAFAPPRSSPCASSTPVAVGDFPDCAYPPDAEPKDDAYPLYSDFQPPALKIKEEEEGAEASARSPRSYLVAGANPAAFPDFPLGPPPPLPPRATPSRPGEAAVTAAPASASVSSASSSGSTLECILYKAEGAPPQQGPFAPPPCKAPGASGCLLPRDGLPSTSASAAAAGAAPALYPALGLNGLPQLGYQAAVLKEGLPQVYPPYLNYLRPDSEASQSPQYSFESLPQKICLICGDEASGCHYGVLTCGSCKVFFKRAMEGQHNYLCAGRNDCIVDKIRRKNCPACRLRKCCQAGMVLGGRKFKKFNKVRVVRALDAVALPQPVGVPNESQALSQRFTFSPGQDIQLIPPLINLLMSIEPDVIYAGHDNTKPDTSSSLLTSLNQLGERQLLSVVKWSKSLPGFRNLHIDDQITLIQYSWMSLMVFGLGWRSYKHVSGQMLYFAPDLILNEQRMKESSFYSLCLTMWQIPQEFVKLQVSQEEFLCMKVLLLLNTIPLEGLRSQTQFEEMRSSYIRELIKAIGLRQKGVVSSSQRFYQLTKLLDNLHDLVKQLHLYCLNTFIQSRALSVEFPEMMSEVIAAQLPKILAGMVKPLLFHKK
The format is functional.

For assay [11], the target named is T4, Prostaglandin G/H synthase 1 (Rattus norvegicus, UniProt Q63921).
T4 sequence (Q63921 whole entry): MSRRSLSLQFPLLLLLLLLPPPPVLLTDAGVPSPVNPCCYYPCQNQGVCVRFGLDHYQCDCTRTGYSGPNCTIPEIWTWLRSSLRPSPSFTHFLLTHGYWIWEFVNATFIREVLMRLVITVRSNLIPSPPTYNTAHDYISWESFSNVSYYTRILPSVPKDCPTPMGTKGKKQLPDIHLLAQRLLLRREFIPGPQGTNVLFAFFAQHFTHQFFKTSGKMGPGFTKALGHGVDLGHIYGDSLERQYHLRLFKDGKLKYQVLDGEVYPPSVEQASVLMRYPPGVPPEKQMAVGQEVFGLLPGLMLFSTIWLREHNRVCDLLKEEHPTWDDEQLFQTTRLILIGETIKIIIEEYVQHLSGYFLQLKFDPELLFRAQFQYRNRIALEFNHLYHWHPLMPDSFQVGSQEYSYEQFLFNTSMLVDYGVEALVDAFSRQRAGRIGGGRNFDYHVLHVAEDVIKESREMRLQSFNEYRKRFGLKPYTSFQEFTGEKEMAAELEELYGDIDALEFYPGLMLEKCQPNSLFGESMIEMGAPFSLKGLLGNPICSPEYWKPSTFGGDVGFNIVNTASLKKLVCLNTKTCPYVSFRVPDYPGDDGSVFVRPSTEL
The format is functional.

The target of assay [12] is Sodium-dependent noradrenaline transporter (Homo sapiens, UniProt P23975).
Assay [13] concerns the target T5, Cannabinoid receptor 1 (Homo sapiens, UniProt P21554). The format is functional, cell-based.
The target in assay [14] is T5, Cannabinoid receptor 1. The format is functional, cell-based. This is another data set of the same source.
Also: assay procedure not described here.

Chain of Neuronal acetylcholine receptor subunit alpha-4 (P43681 whole entry): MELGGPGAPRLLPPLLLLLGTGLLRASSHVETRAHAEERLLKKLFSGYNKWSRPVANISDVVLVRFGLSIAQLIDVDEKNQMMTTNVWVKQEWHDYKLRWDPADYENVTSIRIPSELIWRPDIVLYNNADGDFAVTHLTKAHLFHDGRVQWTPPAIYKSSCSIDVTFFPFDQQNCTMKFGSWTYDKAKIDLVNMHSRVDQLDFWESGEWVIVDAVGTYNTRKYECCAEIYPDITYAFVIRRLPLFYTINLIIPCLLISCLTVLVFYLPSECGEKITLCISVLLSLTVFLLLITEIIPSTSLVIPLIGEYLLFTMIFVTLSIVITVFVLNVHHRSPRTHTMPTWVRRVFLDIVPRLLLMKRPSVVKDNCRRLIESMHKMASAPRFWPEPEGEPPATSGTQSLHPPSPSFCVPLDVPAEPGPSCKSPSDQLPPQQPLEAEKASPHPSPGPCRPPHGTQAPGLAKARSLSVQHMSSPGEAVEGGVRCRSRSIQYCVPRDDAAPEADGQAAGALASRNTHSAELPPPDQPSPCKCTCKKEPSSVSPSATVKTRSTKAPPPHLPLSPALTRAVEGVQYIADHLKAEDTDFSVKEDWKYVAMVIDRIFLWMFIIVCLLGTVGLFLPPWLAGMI
Chain of Histamine H2 receptor (P25021 whole entry): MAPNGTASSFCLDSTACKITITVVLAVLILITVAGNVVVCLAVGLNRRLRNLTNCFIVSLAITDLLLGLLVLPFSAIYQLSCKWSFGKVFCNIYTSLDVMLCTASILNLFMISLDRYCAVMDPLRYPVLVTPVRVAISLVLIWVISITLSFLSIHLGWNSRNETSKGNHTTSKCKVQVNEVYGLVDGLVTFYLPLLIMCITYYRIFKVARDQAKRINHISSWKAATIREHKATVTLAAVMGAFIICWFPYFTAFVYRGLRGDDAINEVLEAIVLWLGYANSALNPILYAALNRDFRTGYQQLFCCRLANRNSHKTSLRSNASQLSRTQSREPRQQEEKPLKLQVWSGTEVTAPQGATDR
Chain of D(1A) dopamine receptor (P21728 whole entry): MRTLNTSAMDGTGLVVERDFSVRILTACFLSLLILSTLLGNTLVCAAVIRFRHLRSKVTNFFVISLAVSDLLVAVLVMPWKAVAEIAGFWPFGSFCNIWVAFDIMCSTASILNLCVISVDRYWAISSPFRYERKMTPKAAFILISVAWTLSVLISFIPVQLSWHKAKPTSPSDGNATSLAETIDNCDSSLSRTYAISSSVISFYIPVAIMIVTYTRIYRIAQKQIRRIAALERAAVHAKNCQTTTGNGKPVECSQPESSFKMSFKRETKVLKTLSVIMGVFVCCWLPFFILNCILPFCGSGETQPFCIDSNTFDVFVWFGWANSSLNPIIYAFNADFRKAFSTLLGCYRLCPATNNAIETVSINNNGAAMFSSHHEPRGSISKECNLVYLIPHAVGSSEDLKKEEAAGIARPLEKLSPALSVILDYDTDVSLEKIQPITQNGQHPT
T5 sequence (P21554 whole entry): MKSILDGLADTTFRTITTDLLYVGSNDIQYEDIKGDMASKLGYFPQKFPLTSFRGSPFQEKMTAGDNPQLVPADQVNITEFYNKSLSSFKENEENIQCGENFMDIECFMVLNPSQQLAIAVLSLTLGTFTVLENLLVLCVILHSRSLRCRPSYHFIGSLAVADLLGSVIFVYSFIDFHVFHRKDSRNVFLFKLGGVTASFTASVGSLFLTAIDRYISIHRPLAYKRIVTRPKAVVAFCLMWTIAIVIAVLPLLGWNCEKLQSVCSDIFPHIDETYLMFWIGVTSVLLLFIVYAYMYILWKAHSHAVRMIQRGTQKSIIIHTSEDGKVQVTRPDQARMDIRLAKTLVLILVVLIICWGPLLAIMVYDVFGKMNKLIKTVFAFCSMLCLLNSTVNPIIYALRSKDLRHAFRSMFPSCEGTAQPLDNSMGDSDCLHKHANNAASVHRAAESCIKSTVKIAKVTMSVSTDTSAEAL
Chain of Gamma-aminobutyric acid receptor subunit alpha-1 (P62813 whole entry): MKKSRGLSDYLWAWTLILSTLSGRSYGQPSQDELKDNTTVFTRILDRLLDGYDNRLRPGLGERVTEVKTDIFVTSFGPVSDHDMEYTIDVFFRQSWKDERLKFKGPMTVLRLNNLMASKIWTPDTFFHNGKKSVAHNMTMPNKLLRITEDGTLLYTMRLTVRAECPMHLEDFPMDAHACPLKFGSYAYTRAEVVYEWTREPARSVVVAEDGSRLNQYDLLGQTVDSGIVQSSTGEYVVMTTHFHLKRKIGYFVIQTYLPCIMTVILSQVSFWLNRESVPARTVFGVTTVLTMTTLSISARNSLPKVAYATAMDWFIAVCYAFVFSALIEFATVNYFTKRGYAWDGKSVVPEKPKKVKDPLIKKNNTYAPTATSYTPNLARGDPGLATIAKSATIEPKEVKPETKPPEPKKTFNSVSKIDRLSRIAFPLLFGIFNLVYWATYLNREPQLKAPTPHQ
Chain of Voltage-dependent L-type calcium channel subunit alpha-1C (P22002 whole entry): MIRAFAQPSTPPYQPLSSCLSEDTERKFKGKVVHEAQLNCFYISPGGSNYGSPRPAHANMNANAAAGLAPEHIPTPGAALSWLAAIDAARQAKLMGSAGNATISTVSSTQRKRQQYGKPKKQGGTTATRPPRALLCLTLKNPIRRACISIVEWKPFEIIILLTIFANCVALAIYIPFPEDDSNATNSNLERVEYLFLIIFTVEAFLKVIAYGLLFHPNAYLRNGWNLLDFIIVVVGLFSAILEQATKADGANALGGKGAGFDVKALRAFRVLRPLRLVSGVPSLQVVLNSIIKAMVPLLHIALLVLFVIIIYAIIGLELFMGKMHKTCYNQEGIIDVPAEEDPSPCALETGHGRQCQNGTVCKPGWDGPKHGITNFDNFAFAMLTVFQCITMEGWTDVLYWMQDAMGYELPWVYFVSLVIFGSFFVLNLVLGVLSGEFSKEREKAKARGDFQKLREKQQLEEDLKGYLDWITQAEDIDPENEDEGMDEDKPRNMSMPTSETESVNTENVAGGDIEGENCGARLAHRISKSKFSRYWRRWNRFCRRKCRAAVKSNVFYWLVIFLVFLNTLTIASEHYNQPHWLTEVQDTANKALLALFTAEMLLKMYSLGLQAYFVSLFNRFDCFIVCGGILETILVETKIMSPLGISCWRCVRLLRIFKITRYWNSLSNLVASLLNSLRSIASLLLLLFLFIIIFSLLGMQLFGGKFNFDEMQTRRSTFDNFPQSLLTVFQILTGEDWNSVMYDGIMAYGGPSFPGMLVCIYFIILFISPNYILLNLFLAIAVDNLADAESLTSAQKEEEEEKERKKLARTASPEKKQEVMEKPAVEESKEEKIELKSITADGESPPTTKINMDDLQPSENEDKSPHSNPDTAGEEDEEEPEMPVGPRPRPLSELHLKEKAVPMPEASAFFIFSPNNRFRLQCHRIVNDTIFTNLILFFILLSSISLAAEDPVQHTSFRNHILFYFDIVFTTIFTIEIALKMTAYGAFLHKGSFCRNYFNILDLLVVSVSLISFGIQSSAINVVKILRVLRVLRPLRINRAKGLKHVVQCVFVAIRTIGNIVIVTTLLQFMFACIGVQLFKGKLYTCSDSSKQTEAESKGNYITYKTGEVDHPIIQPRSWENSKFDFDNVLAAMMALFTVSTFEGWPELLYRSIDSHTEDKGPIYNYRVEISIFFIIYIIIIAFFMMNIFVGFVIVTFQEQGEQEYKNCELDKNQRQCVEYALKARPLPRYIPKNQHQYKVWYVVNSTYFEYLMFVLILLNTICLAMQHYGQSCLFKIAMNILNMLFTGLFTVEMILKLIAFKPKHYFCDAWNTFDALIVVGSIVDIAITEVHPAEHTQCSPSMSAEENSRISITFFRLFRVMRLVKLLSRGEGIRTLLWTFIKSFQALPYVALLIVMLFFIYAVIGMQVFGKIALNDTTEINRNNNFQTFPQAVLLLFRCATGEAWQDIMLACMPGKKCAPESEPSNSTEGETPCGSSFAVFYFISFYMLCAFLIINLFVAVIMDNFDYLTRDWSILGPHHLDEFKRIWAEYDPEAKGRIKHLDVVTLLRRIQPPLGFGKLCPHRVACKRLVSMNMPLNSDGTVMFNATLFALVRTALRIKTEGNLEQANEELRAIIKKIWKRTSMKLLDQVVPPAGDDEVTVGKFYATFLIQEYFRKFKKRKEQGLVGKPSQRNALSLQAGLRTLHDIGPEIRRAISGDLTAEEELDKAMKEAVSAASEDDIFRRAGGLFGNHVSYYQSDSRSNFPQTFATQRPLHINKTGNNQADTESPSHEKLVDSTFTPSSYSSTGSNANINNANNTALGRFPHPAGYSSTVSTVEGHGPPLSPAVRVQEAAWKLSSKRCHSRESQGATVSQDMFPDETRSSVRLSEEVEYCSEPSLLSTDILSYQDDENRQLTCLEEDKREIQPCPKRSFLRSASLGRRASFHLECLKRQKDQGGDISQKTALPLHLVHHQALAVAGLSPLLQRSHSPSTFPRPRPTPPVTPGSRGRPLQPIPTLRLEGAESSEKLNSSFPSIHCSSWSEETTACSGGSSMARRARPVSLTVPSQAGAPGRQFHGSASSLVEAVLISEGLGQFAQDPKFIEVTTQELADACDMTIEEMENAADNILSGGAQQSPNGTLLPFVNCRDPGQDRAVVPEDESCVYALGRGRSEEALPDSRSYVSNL
Chain of Adenosine receptor A2a (P29274 whole entry): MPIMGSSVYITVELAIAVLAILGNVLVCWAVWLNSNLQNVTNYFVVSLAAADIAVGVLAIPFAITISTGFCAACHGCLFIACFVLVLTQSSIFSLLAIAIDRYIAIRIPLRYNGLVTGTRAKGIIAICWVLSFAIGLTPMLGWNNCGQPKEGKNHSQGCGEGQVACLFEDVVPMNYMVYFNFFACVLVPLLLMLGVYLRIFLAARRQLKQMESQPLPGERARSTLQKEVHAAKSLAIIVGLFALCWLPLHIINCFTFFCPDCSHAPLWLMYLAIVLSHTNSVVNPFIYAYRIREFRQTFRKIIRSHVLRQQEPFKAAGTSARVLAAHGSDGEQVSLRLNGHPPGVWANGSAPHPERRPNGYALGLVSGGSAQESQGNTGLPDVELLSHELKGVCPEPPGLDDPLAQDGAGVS

The term AC50 denotes the midpoint of the concentration-response curve, whichever way the signal moves. Regarding `Cc1nc2ccc(CN(C)c3ccc(C(=O)N[C@@H](CCC(=O)O)C(=O)O)s3)cc2c(=O)[nH]1` [RALTITREXED], the AC50 in assay [1], in assay [2], in assay [3], in assay [4], in assay [5] and in assay [6] was greater than 30 µM in each case. Besides, the AC50 in [7], in assay [8], in assay [9], in assay [10], in assay [11] and in assay [12] was greater than 30 µM throughout.

Consider `COC(=O)C1=C(C)NC(C)=C(C(=O)OC(C)C)C1c1cccc2nonc12` (stereo not drawn) [ISRADIPINE], for which the AC50 in [1] was greater than 30 µM; in [2] it was greater than 10 µM; in [3], 0.0045 µM; in assay [4], greater than 30 µM; in assay [5], greater than 30 µM; in [6], greater than 30 µM. Further, the AC50 in assay [7] was greater than 10 µM; in assay [8], greater than 10 µM; in assay [9], greater than 30 µM; in assay [10], greater than 30 µM; in [11], greater than 30 µM; in [12], greater than 30 µM.

For the compound `COc1ccccc1OCC(O)COC(N)=O` (stereo not drawn) [METHOCARBAMOL], the AC50 in assay [1] is greater than 10 µM; in assay [2], greater than 30 µM; in assay [3], greater than 10 µM; in assay [4] it was greater than 10 µM; in [5], greater than 10 µM; in [6], greater than 10 µM. In addition, the AC50 in assay [7] is greater than 10 µM; in assay [8], greater than 10 µM; in assay [9], greater than 10 µM; in assay [10] it was greater than 30 µM; in assay [11] it was greater than 10 µM; in [12], greater than 10 µM.

`COc1c(N2CCNC(C)C2)c(F)cc2c(=O)c(C(=O)O)cn(C3CC3)c12` (stereo not drawn) [GATIFLOXACIN]: the AC50 in assay [1] is greater than 10 µM; in assay [2], greater than 10 µM; in [3] it was greater than 10 µM; in assay [4] it was greater than 10 µM; in assay [5], greater than 10 µM; in assay [6], greater than 30 µM. Further, the AC50 was greater than 10 µM in [7]; greater than 10 µM in assay [8]; greater than 30 µM in assay [9]; greater than 10 µM in assay [10]; greater than 10 µM in assay [11]; greater than 10 µM in [12].

For `C#CCN[C@@H]1CCc2ccccc21` [RASAGILINE], the AC50 in [1], in assay [2], in assay [3], in assay [4], in assay [5] and in [6] was greater than 30 µM each time. Further, the AC50 in assay [7], in [8], in assay [9], in [10], in assay [11] and in assay [12] was greater than 30 µM in each case.

Consider `CN1CCC2=C(C1)C(c1ccccc1)c1ccccc12` (stereo not drawn) [PHENINDAMINE], for which the AC50 in [1], in assay [2], in assay [3], in assay [4], in assay [5] and in assay [6] was greater than 10 µM each time. Further, the AC50 in assay [7] is greater than 10 µM; in assay [8], greater than 10 µM; in assay [9], greater than 10 µM; in assay [10] it was greater than 30 µM; in assay [11], 0.771 µM; in assay [12], greater than 30 µM.

`C#CC1(OC(N)=O)CCCCC1` [ETHINAMATE]: the AC50 in assay [1] is greater than 10 µM; in [2], greater than 30 µM; in [3], greater than 10 µM; in assay [4] it was greater than 10 µM; in assay [5], greater than 10 µM; in assay [6] it was greater than 10 µM. Also, the AC50 in assay [7], in assay [8], in assay [9], in assay [10], in [11] and in assay [12] was greater than 10 µM throughout.

Regarding `CCN(CC)CCOC(=O)c1ccc(N)cc1` [PROCAINE], the AC50 was greater than 30 µM in [1]; greater than 30 µM in [2]; greater than 10 µM in assay [3]; greater than 30 µM in [4]; greater than 10 µM in assay [5]; greater than 30 µM in assay [13]. Further, the AC50 is greater than 30 µM in [14]; greater than 10 µM in assay [6]; greater than 10 µM in [7]; greater than 10 µM in [8]; greater than 10 µM in [9]; greater than 30 µM in assay [11]. For the same compound, the AC50 in assay [12] was greater than 30 µM.

Take `NC(CO)C(=O)NNCc1ccc(O)c(O)c1O` (stereo not drawn) [BENSERAZIDE]: the AC50 is greater than 30 µM in assay [1]; greater than 30 µM in [2]; greater than 10 µM in assay [3]; greater than 30 µM in [4]; greater than 10 µM in assay [5]; greater than 30 µM in assay [13]. In addition, the AC50 in assay [14] was greater than 30 µM; in assay [6] it was greater than 10 µM; in assay [7] it was greater than 10 µM; in assay [8], greater than 10 µM; in [9], greater than 10 µM; in assay [11], greater than 30 µM. This compound also came in with an AC50 in [12] greater than 30 µM.

For the compound `C1COC(NC(C2CC2)C2CC2)=N1` [RILMENIDINE], the AC50 in assay [1] was greater than 30 µM; in assay [2], greater than 30 µM; in assay [3] it was greater than 10 µM; in [4], greater than 30 µM; in assay [5], greater than 10 µM; in assay [13], greater than 30 µM. For the same compound, the concentration at half-maximal activity (AC50) in assay [14] is greater than 30 µM; in assay [6] it was greater than 10 µM; in [7], greater than 10 µM; in assay [8], greater than 10 µM; in assay [9], greater than 10 µM; in assay [11] it was greater than 30 µM. In [12], this compound came in with an AC50 greater than 30 µM.

Values taken from ChEMBL document CHEMBL5291721, “A preclinical secondary pharmacology resource illuminates target-adverse drug reaction associations of marketed drugs” (Nat Commun, 2023).
